Laboratory results published in patent US7018989B2, “Chemical compounds” (University College Cardiff Consultants, LTD, priority 1995, dated 2006).
Where two headings read alike, the source gives them in different places.

Columns and labels:
[1] = system: III-B strain of HIV-1; experiment: microbe, parasite or virus in culture; assay type: cell-based
Protocol: (§1) C8166 cells. Cells were grown in RPMI 1640 with 10% calf serum. 4×10^4 cells per microtiter plate well were mixed with 5-fold dilutions of compound prior to addition of 10 CCID50 units of III-B strain of HIV-1 and incubated for 5–7 days (Betbeder et al. Antiviral Chem. Chemother. 1, 241–247, 1990). Formation of syncytia was examined from 2 days post-infection. Culture fluid was collected at 5–7 days and gp120 antigen production measured by ELISA (Mahmood and Hay, J. Immunol. Meth., 151, 9–13, 1992). […] Cell viability of infected and uninfected cells were assessed by the MTT-Formazen method (Pauwels et al. J. Virol. Meth. 20, 309–321, 1988).
(§2) Each assay was carried out in duplicate, on at least two separate occasions, and data quoted are the average of each separate assay.

[2] = system: HIV-2; experiment: Inhibition of HIV-2 in CEM/TK- cells; assay type: cell-based
Method in brief: (§3)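 Giant cell formation, recorded under the microscope on day 4, served as the end point for CEM cells, while MT-4 viability was determined by trypan blue exclusion on day 5. Cell suspensions (5×10^5/mL) received virus at 100 CCID50/mL before compound addition.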

[3] = system: HIV-1; experiment: microbe, parasite or virus in culture; details: read-out: HIV1 CEM: EC50 for inhibition of HIV-1 in CEM cells
Method in brief: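 5×10^5 cells/mL, 100 CCID50/mL virus, + compound dilutions. CEM: giant cells scored microscopically, day 4. MT-4: viability by trypan blue, day 5.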

[4] = system: C8166 cells; experiment: Toxicity in C8166 cells (MTT-Formazen); assay type: cell-based; details: Table 3
Protocol: as §1, §2

[5] = system: HIV-2; experiment: Inhibition of HIV-2 in CEM cells (giant cell formation); assay type: cell-based
Method in brief: as §3

[6] = system: HIV-1; experiment: Inhibition of HIV-1 in MT4 cells; assay type: cell-based; details: MT4 cells, HIV-1; read-out: HIV1 MT4: EC50 for inhibition of HIV-1 in MT4 cells
Protocol: (§4) Cells were infected with HIV-1 as previously described [Balzarini et al. AIDS (1991), 5, 21–28]. Briefly, 5×10^5 cells per milliliter were infected with HIV-1 or HIV-2 at 100 CCID50 (50% cell culture infective dose) per milliliter of cell suspension. Then 100 μL of the infected cell suspension was transferred to microtiter plate wells and mixed with 100 μL of the appropriate dilutions of the test compounds. After 4 days giant cell formation was recorded microscopically in the HIV-infected cell cultures [CEM], and after 5 days the number of viable cells was determined by trypan blue staining of the HIV-infected cell cultures [MT4].
(§5) The data columns are, in order: • HIV1 MT4: EC50 in μM for inhibition of HIV-1 in MT4 cells. • HIV2 MT4: EC50 in μM for inhibition of HIV-2 in MT4 cells. • CC50 MT4: CC50 in μM for toxicity to MT-4 cells. • HIV1 CEM: EC50 in μM for inhibition of HIV-1 in CEM cells. • HIV2 CEM: EC50 in μM for inhibition of HIV-2 in CEM cells. • HIV2 CEM-TK-: EC50 in μM for inhibition of HIV-2 in CEM/TK^− cells. • CC50 CEM: CC50 in μM for toxicity to CEM cells. • EC50 MSV: EC50 in μM for inhibition of MSV • MCC MSV: Minimum cytotoxic concentration in MSV assay

[7] = system: MT-4 cells; experiment: Toxicity to MT-4 cells; assay type: cell-based, human; details: MT-4 cells; read-out: CC50 MT4: CC50 for toxicity to MT-4 cells
Protocol: as §4, §5

[8] = system: HIV-2; experiment: Inhibition of HIV-2 in MT4 cells; assay type: cell-based; details: MT4 cells, HIV-2; read-out: HIV2 MT4: EC50 for inhibition of HIV-2 in MT4 cells
Protocol: as §4, §5

[9] = system: CEM cells; experiment: Toxicity to CEM cells; assay type: cell-based, human; details: Table 6; mean of two or more repeat experiments
Protocol: as §4, §5

[10] = system: MSV; experiment: Inhibition of MSV (in vitro); assay type: cell-based, Moloney Sarcoma Virus; details: Table 6
Source text: as §5

[11] = Minimum cytotoxic concentration in MSV assay; assay type: cell-based; details: Table 6
Source text: as §5, with “CEM/TK^-” for “CEM/TK^−”, “[…]:” for “MSV • MCC MSV:”

[12] = HIV1 in C8166 cells, Table 3, read-out: Activity EC50
[13] = HIV2, Table 2, read-out: EC50 CEM TK^−
[14] = Table 6, mean of two or more repeat experiments, read-out: HIV2 CEM-TK-: EC50 for inhibition of HIV-2 in CEM/TK^− cells
[15] = Table 6, mean of two or more repeat experiments
[16] = Table 6, mean of two or more repeat experiments, read-out: HIV2 CEM: EC50 for inhibition of HIV-2 in CEM cells

| Compound | EC50 ([1]; HIV1 in C8166, Table 2, read-out: EC50 C8166) | EC50 [1, 12] | EC50 [2, 13] | EC50 [2, 14] | EC50 [3, 15] | CC50 [4] | EC50 [5, 13] | EC50 [5, 16] | Selectivity CC50/EC50 × 10^3 [1] | EC50 [6] | CC50 [7] | EC50 ([2]; CEM/TK- cells, HIV-2, read-out: HIV2 CEM-TK-: EC50 for inhibition of HIV-2 in CEM/TK- cells) | EC50 [8] | EC50 ([3]; CEM cells, HIV-1) | EC50 ([5]; CEM cells, HIV-2, read-out: HIV2 CEM: EC50 for inhibition of HIV-2 in CEM cells) | CC50 [9] | EC50 [10] | MCC MSV: Minimum cytotoxic concentration in MSV assay [11] |
| --- | --- | --- | --- | --- | --- | --- | --- | --- | --- | --- | --- | --- | --- | --- | --- | --- | --- | --- |
| Cc1cn(C2C=CC(COP(=O)(NC(C)C(=O)OCc3ccccc3)Oc3ccccc3)O2)c(=O)[nH]c1=O (stereo not drawn) [Compound 730, 2′,3′-dideoxy-2′,3′-didehydrothymidine-5′-(phenyl N-benzyloxyalaninyl) phosphoramidate] | 0.0008 µM | 0.0008 µM | 0.06 µM | 0.06 µM | 0.016 µM | 400 µM | 0.016 µM | 0.016 µM |  |  |  |  |  |  |  |  |  |  |
| COC(=O)C(C)NP(=O)(OCC1C=CC(n2cc(C)c(=O)[nH]c2=O)O1)Oc1ccc(F)cc1 (stereo not drawn) [Compound 327, 2′,3′-dideoxy-2′,3′-didehydrothymidine 5′-(p-fluorophenylmethoxyalaninyl) phosphoramidate] |  | 0.0032 µM |  |  |  | 200 µM |  |  | 62.5 × 10^3 |  |  |  |  |  |  |  |  |  |
| COC(=O)C(C)NP(=O)(OCC1OC(n2cc(C)c(=O)[nH]c2=O)CC1N=[N+]=[N-])Oc1cccc(C(F)(F)F)c1 (stereo not drawn) [Compound 536, 3′-Deoxy-3′β-azidothymidine 5′-(m-trifluoromethylphenylmethoxylalaninyl) phosphoramidate] |  |  |  |  |  |  |  |  |  | 0.45 µM | 104 µM | 3 µM | 0.9 µM | 1 µM | 2 µM |  |  |  |
| Cc1cn(C2C=CC(COP(=O)(Oc3ccc(Br)cc3Br)N(C)C(C)C(=O)O)O2)c(=O)[nH]c1=O (stereo not drawn) [Compound 776, 2′,3′-dideoxy-2′,3′-didehydrothymidine-5′-(2,4-dibromophenyl N-methylalaninyl) phosphoramidate] |  | 0.0008 µM |  | 0.025 µM | 0.04 µM | 100 µM |  | 0.055 µM | 125 × 10^3 |  |  |  |  |  |  | 16 µM |  |  |
| Cc1cn(C2C=CC(COP(=O)(NC(C)C(=O)OCc3ccccc3)Oc3ccc(Br)cc3Br)O2)c(=O)[nH]c1=O (stereo not drawn) [Compound 868, 2′,3′-dideoxy-2′, 3′-didehydrothymidine-5′-(2,4-dibromophenyl N-benzylalaninyl) phosphoramidate] |  | 0.0032 µM |  | 0.2 µM | 0.2 µM | 500 µM |  | 0.2 µM | 156 × 10^3 |  |  |  |  |  |  | 50 µM |  |  |
| Cc1cn([C@H]2C=C[C@@H](COP(=O)(NC(C)C(=O)OC(C)(C)C)Oc3ccccc3)O2)c(=O)[nH]c1=O (stereo partly drawn) [Compound 893, 2′,3′-dideoxy-2′,3′-didehydrothymidine 5′-(phenyl N-tButyloxyalaninyl) phosphoramidate] |  | 0.2 µM |  | 0.74 µM | 0.85 µM | > 1000 µM |  | 1.1 µM | >5.0 × 10^3 |  |  |  |  |  |  | ≥ 250 µM |  |  |
| Cc1cn(C2C=CC(COP(=O)(N[C@@H](C)C(=O)OC3CCCCC3)Oc3ccccc3)O2)c(=O)[nH]c1=O (stereo partly drawn) [Compound 892, 2′,3′-dideoxy-2′,3′-didehydrothymidine 5′-(phenyl N-cyclohexyloxyalaninyl) phosphoramidate] |  | 0.0016 µM |  | 0.09 µM | 0.065 µM | 500 µM |  | 0.075 µM | 312 × 10^3 |  |  |  |  |  |  | 51.4 µM |  |  |
| Cc1cn(C2C=CC(COP(=O)(NC(Cc3ccccc3)C(=O)OCc3ccccc3)Oc3ccccc3)O2)c(=O)[nH]c1=O (stereo not drawn) [Compound 877, 2′,3′-dideoxy-2′,3′-didehydrothymidine-5′-(phenyl N-methoxyglycinyl) phosphoramidate] |  | 0.0003 µM |  | 0.24 µM | 0.6 µM | 80 µM |  | 0.6 µM | 267 × 10^3 |  |  |  |  |  |  | 44 µM |  |  |
| CSCC[C@H](NP(=O)(O)OC[C@@H]1C=C[C@H](n2cc(C)c(=O)[nH]c2=O)O1)C(=O)O [Compound 1156, 2′,3′-dideoxy-2′,3′-didehydrothymidine 5′-(methioninyl phosphate)] |  |  |  | 50 µM | 1.27 µM |  |  | 0.7 µM |  |  |  |  |  |  |  | > 250 µM | 16.2 µM | >100 |
| CCCCCCOC(=O)[C@H](C)NP(=O)(OCC1C=CC(n2cc(C)c(=O)[nH]c2=O)O1)Oc1ccccc1 (stereo partly drawn) [Compound 862, 2′,3′-dideoxy-2′,3′-didehydrothymidine 5′-(phenyl N-hexyloxyalaninyl) phosphoramidate] |  | 0.0012 µM |  | 0.033 µM | 0.06 µM | 500 µM |  | 0.055 µM | 417 × 10^3 |  |  |  |  |  |  | 48 µM |  |  |
| Cc1cn(C2C=CC(COP(=O)(O)NC(CC(=O)O)C(=O)O)O2)c(=O)[nH]c1=O (stereo not drawn) [Compound 1079] |  |  |  | 70 µM | 1.6 µM |  |  | 2.5 µM |  |  |  |  |  |  |  | ≥ 250 µM | 9.3 µM | >100 |
| COP(=O)(NC(C)C(=O)OCc1ccccc1)OCC1C=CC(n2cc(C)c(=O)[nH]c2=O)O1 (stereo not drawn) [Compound 1135] |  |  |  | 17.5 µM | 10 µM |  |  | 15 µM |  |  |  |  |  |  |  | > 250 µM | > 100 µM | >100 |
| COC(=O)C(OP(=O)(OCC1C=CC(n2cc(C)c(=O)[nH]c2=O)O1)Oc1ccccc1)c1ccccc1 (stereo not drawn) [Compound 982] |  |  |  | 15 µM | 1.7 µM |  |  | 0.65 µM |  |  |  |  |  |  |  | 94 µM | 14 µM | >100 |
| Cc1cn([C@H]2C=C[C@@H](COP(=O)(NC(Cc3ccccc3)C(=O)OC(C)(C)C)Oc3ccccc3)O2)c(=O)[nH]c1=O (stereo partly drawn) [Compound 878, 2′,3′-dideoxy-2′,3′-didehydrothymidine-5′-(phenyl N-tert-butylphenylalaninyl) phosphoramidate] |  | 0.16 µM |  | 0.65 µM | 2 µM | 150 µM |  | 2 µM | 0.9 × 10^3 |  |  |  |  |  |  | 80 µM |  |  |
| Cc1cn(C2C=CC(COP(=O)(Oc3ccccc3)N3CCCC3C(=O)OCc3ccccc3)O2)c(=O)[nH]c1=O (stereo not drawn) [Compound 933] |  |  |  | > 50 µM | 35 µM |  |  | 12.5 µM |  |  |  |  |  |  |  | 92 µM | > 100 µM | >100 |
